Experimental data published in US11712438B2, “Phenyl derivatives as PGE2 receptor modulators” (IDORSIA PHARMACEUTICALS LTD, priority 2017, dated 2023).

What was measured:
Assay in all cases: cell-based
PTRGER4 (EP4) = PTRGER4 (EP4) (Homo sapiens, UniProt P35408);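 also: assay plate preincubated 15 min at 37 °C, after which PGE2 was added at 20 nM final and incubation continued 120 min at 37 °C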
EP2 = EP2 (Homo sapiens, UniProt P43116);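 also: SF295 glioblastoma cells with endogenous EP2 only, PGE2-stimulated cAMP accumulation read by HTRF competitive immunoassay, 45 min pre-incubation then 30 min at room temperature, IBMX in buffer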
EP2, sequence (P43116 whole entry): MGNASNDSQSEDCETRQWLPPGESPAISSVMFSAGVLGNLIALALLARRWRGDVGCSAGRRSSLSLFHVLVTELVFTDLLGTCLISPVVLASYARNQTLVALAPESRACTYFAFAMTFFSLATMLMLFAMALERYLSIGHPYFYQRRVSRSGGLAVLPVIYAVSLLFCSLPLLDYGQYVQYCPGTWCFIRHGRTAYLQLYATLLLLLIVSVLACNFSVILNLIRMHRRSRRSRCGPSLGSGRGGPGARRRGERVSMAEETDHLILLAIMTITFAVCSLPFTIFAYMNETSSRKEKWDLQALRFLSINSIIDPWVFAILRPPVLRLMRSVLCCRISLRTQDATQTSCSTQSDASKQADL

EP4 = EP4 (Homo sapiens, UniProt P35408);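 also: inhibition of PGE2-evoked (6 nM) cAMP accumulation in BT549 breast cancer cells endogenously expressing EP4, cAMP read by HTRF competitive immunoassay after 30 min at room temperature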
EP4, sequence (P35408 whole entry): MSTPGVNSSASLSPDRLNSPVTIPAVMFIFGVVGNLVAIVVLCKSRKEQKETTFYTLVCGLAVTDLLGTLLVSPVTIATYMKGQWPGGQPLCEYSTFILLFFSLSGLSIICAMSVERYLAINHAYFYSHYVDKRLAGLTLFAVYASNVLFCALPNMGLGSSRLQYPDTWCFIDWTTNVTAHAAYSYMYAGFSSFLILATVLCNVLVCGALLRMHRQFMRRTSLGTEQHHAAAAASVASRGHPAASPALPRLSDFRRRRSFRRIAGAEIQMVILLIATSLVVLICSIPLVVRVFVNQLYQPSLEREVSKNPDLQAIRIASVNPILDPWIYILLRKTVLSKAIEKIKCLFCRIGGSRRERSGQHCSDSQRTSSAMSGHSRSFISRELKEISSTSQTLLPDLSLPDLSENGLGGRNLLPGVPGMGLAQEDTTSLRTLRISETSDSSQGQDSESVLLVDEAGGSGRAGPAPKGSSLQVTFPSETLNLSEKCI
From the text: Human tumor cell lines expressing endogenously either EP4 or EP2 are used and cAMP accumulation in cells upon PGE2 stimulation is monitored.
As a detection method for cAMP the HTRF (homogeneous time resolved fluorescence) Cisbio kit (HTRF cAMP dynamic 2 kit 20′000 tests Cisbio Cat. #62AM4PEC) was used, which is based on a competitive immunoassay using a Cryptate-labeled anti-cAMP antibody and d2-labeled cAMP. Native cAMP produced by cells or unlabeled cAMP (for the standard curve) compete with exogenously added d2-labeled cAMP (acceptor) for binding to monoclonal anti-cAMP-Eu3+ Cryptate (donor). A FRET signal (Fluorescence Resonance Energy Transfer) is obtained only if the labeled anti-cAMP antibody binds the d2 labelled cAMP, thus the specific signal (i.e. energy transfer) is inversely proportional to the concentration of cAMP in the standard or sample.
The BT549 cells (NCI/No. 0507282) are detached from culture dishes with a cell dissociation buffer (Invitrogen, 13151-014), and collected in growing medium (GM: RPM11640 (Invitrogen 21875)/10% FCS, 1% Penicilin/streptomycin). Cells are counted washed and resuspended in assay buffer (AB; HBSS, 20 mM HEPES, 0.2% BSA; 2 mM IBMX). 4′000 cells in 5 μl of AB are seeded per well of a small volume 384 well plate (black with flat bottom, Greiner 784076).
Stock solutions of test compounds are made at a concentration of 10 mM in DMSO, and serially diluted in DMSO to concentrations required for inhibition dose response curves (tested concentration range 30 μM-0.4 nM; 30 μM-0.015 nM or 1 μM-0.01 nM).
PGE2 (Cayman 14010, stock solution: 6 μM in DMSO) is used as agonist at 6 nM final concentration, corresponding to EC80.
Two point five microliters of diluted compounds are transferred into the assay plate. Plate is pre-incubated 45 minutes at room temperature. Subsequently, 2.5 microliters of PGE2 (final conc. 6 nM) are transferred into the assay plate. Plate is incubated 30 minutes at room temperature.
For each compound concentration the percentage of cAMP compared to DMSO control value as average±STDEV (each concentration is measured in duplicate) is calculated.
When compounds were measured multiple times, mean values are given.

PTGER2 (EP2) = PTGER2 (EP2) (Homo sapiens, UniProt P43116)
PTGER2 (EP2), sequence (P43116 whole entry): as the sequence (P43116 whole entry) above

PTRGER4 (EP4), sequence (P35408 whole entry): as the sequence (P35408 whole entry) above

Structure (SMILES) | IC50 (PTRGER4 (EP4)) [nM] | IC50 (EP2) [nM] | IC50 (EP4) [nM] | IC50 (PTGER2 (EP2)) [nM]
CCOc1cc(F)ccc1CCNc1cc(-c2cc(OCC)c(-c3noc(=O)[nH]3)s2)ncn1 [Example 95, 3-(3-Ethoxy-5-{6-[2-(2-ethoxy-4-fluoro-phenyl)-ethylamino]-pyrimidin-4-yl}-thiophen-2-yl)-[1,2,4]oxadiazol-5(4H)-one] | 59 | 15 | 166 | 30
CCOc1cc(-c2cc(NCCc3ccc(Cl)cc3C#N)ncn2)sc1-c1noc(=O)[nH]1 [Example 96] | 43 | 58 | 106 | 24
CCOc1cc(-c2cc(NCCc3ccc(F)cc3C#N)ncn2)sc1-c1noc(=O)[nH]1 [Example 97] | 95 | 144 | 127 | 131
CCOc1cc(-c2cc(NCCc3c(F)ccc(Cl)c3F)ncn2)sc1-c1noc(=O)[nH]1 [Example 98, 3-(5-{6-[2-(3-Chloro-2,6-difluoro-phenyl)-ethylamino]-pyrimidin-4-yl}-3-ethoxy-thiophen-2yl)-[1,2,4]oxadiazol-5(4H)-one] | 14 | 83 | 50 | 53
CCOc1cc(-c2cc(NCCc3ccc(OC)cc3CC)ncn2)sc1-c1noc(=O)[nH]1 [Example 99, 3-(3-Ethoxy-5-{6-[2-(2-ethyl-4-methoxy-phenyl)-ethylamino]-pyrimidin-4-yl}-thiophen-2-yl)-[1,2,4]oxadiazol-5(4H)-one] | 45 | 80 | 69 | 75
CCOc1cc(-c2cc(NCCc3c(F)ccc(F)c3Cl)ncn2)sc1-c1noc(=O)[nH]1 [Example 100, 3-(5-{6-[2-(2-Chloro-3,6-difluoro-phenyl)-ethylamino]-pyrimidin-4-yl}-3-ethoxy-thiophen-2yl)-[1,2,4]oxadiazol-5(4H)-one] | 27 | 50 | 59 | 17
CCOc1cc(-c2cc(NCCc3c(F)cc(F)cc3F)ncn2)sc1-c1noc(=O)[nH]1 [Example 101, 3-(3-Ethoxy-5-{6-[2-(2,4,6-trifluoro-phenyl)-ethylamino]-pyrimidin-4-yl}-thiophen-2-yl)-[1,2,4]oxadiazol-5(4H)-one] | 103 | 62 | 82 | 44
CCOc1ccccc1CCNc1cc(-c2cc(OCC)c(-c3noc(=O)[nH]3)s2)ncn1 [Example 102, 3-(3-Ethoxy-5-{6-[2-(2-ethoxy-phenyl)-ethylamino]-pyrimidin-4-yl}-thiophen-2-yl)-[1,2,4]oxadiazol-5(4H)-one] | 91 | 17 | 122 | 34
CCOc1cc(-c2cc(NCCc3c(F)cccc3F)ncn2)sc1-c1noc(=O)[nH]1 [Example 103, 3-(5-{6-[2-(2,6-Difluoro-phenyl)-ethylamino]-pyrimidin-4-yl}-3-ethoxy-thiophen-2-yl)-[1,2,4]oxadiazol-5(4H)-one] | 36 | 39 | 39 | 62
CCOc1cc(-c2cc(NCCc3c(F)cc(Cl)cc3F)ncn2)sc1-c1noc(=O)[nH]1 [Example 105, 3-(5-{6-[2-(4-Chloro-2,6-difluoro-phenyl)-ethylamino]-pyrimidin-4-yl}-3-ethoxy-thiophen-2yl)-[1,2,4]oxadiazol-5(4H)-one] | 9 | 40 | 25 | 11
CCOc1cc(-c2cc(NCCc3ccc(Br)c(Cl)c3)ncn2)sc1-c1noc(=O)[nH]1 [Example 106, 3-(5-{6-[2-(4-Bromo-3-chloro-phenyl)-ethylamino]-pyrimidin-4-yl}-3-ethoxy-thiophen-2-yl)-[1,2,4]oxadiazol-5(4H)-one] | 1 | 49 | 10 | 35
CCOc1cc(-c2cc(NCCc3cc(F)c(Br)cc3F)ncn2)sc1-c1noc(=O)[nH]1 [Example 107, 3-(5-{6-[2-(4-Bromo-2,5-difluoro-phenyl)-ethylamino]-pyrimidin-4-yl}-3-ethoxy-thiophen-2yl)-[1,2,4]oxadiazol-5(4H)-one] | 2 | 11 | 7 | 10
CCOc1cc(-c2cc(NCCc3ccc(Br)c(F)c3)ncn2)sc1-c1noc(=O)[nH]1 [Example 108, 3-(5-{6-[2-(4-Bromo-3-fluoro-phenyl)-ethylamino]-pyrimidin-4-yl}-3-ethoxy-thiophen-2-yl)-[1,2,4]oxadiazol-5(4H)-one] | 5 | 113 | 15 | 28
CCOc1cc(-c2cc(NCCc3c(F)cc(Br)cc3F)ncn2)sc1-c1noc(=O)[nH]1 [Example 110, 3-(5-{6-[2-(4-Bromo-2,6-difluoro-phenyl)-ethylamino]-pyrimidin-4-yl}-3-ethoxy-thiophen-2yl)-[1,2,4]oxadiazol-5(4H)-one] | 2 | 9 | 3 | 6
CCOc1cc(-c2cc(NCCc3cc(F)c(Br)cc3C)ncn2)sc1-c1noc(=O)[nH]1 [Example 111, 3-(5-{6-[2-(4-Bromo-5-fluoro-2-methyl-phenyl)-ethylamino]-pyrimidin-4-yl}-3-ethoxy-thiophen-2yl)-[1,2,4]oxadiazol-5(4H)-one] | 6 | 137 | 26 | 31
CCOc1cc(-c2cc(NCCc3ccc(Br)c(C)c3)ncn2)sc1-c1noc(=O)[nH]1 [Example 113, 3-(5-{6-[2-(4-Bromo-3-methyl-phenyl)-ethylamino]-pyrimidin-4-yl}-3-ethoxy-thiophen-2-yl)-[1,2,4]oxadiazol-5(4H)-one] | 3 | 113 | 29 | 47
CCOc1cc(-c2cc(NCCc3cc(C)c(Br)cc3F)ncn2)sc1-c1noc(=O)[nH]1 [Example 114, 3-(5-{6-[2-(4-Bromo-2-fluoro-5-methyl-phenyl)-ethylamino]-pyrimidin-4-yl}-3-ethoxy-thiophen-2yl)-[1,2,4]oxadiazol-5(4H)-one] | 3 | 27 | 8 | 15
CCOc1cc(-c2cc(NCCc3ccc(Br)c(OC)c3)ncn2)sc1-c1noc(=O)[nH]1 [Example 115, 3-(5-{6-[2-(4-Bromo-3-methoxy-phenyl)-ethylamino]-pyrimidin-4-yl}-3-ethoxy-thiophen-2yl)-[1,2,4]oxadiazol-5(4H)-one] | 16 | 51 | 12 | 44
CCOc1cc(-c2cc(NCCc3ccc(OC)cc3OC)ncn2)sc1-c1noc(=O)[nH]1 [Example 116, 3-(5-{6-[2-(2,4-Dimethoxy-phenyl)-ethylamino]-pyrimidin-4-yl}-3-ethoxy-thiophen-2-yl)-[1,2,4]oxadiazol-5(4H)-one] | 5 | 14 | 8 | 10
CCOc1cc(-c2cc(NCCc3ccc(OC)c(O)c3)ncn2)sc1-c1noc(=O)[nH]1 [Example 117, 3-(3-Ethoxy-5-{6-[2-(3-hydroxy-4-methoxy-phenyl)-ethylamino]-pyrimidin-4-yl}-thiophen-2yl)-[1,2,4]oxadiazol-5(4H)-one] | 16 | 244 | 26 | 692
